Laboratory results from PMC12220852, “An adamantane‐based ligand as a novel chemical tool for thermosensory TRPM8 channel therapeutic modulation” (The Febs Journal, 2025).

Key:
Format in all cases: cell-based
[1] = system: WS‐12‐evoked action potentials in primary cultures of murine DRG sensory neurons; assay: Multielectrode array (MEA): WS-12-evoked action potential firing in DRG sensory neurons; details: Mus musculus, Neuron; 0.43 μM compound, 1 μM WS-12, MEA, P2/P1; read-out: inhibition of WS‐12‐induced action potential firing
Description: Complementarily, we examined the effect of compound 23 on WS‐12‐evoked action potentials in primary cultures of murine DRG sensory neurons. For this task, we recorded neuronal excitability using multielectrode arrays (MEAs). […] A protocol of two sequential pulses of WS‐12 interspersed with a washing pulse was applied to correct for channel desensitization (Fig. 7A, upper recording). Compounds 23 and AMTB (0.43 and 10 μM, respectively) were applied 1 min before and during the second WS‐12 pulse (Fig. 7A, second, third, and fourth recordings). As depicted in Fig. 7B, compound 23 virtually abolished action potential firings induced by WS‐12 application in murine primary afferent neurons (≥ 75%). Thus, compound 23 appears to be a potent inhibitor of WS12‐evoked firing frequency, even surpassing the efficacy of AMTB […] (Fig. 7B).
Primary cultures of neonatal dorsal root ganglia were used for multielectrode array (MEA) and patch‐clamp experiments following established methodologies previously described. Neonatal dorsal root ganglia (DRGs) were obtained from Wistar rats (3–5 days old) and were isolated and digested with 0.25% (w/v) collagenase (type IA) in DMEM GlutaMax with 1% (v/v) penicillin/streptomycin (P/S) solution for 1 h at 37 °C in a 5% CO2 Thermo Scientific incubator. […]

[2] = biological target: T1, recombinant human TRPM8 stably expressed in HEK293 cells (hTRPM8) (Homo sapiens, UniProt Q7Z2W7); assay: Ca2+ microfluorimetry screen for agonist/antagonist activity in hTRPM8-HEK293 cells; details: agonists vs WS-12, antagonists vs WS-12 response, read-out: Efficacy (percentage of maximal activation or blockade)
T1 construct: expressed in transfected cells

[3] = biological target: T1, recombinant human TRPM8 stably expressed in HEK293 cells (hTRPM8); assay: as above
Text: We first evaluated the series of compounds 20–29 synthesized using the Passerini‐Adamantane reaction. All compounds were screened for channel agonism and antagonism on recombinant human TRPM8 stably expressed in HEK293 cells (hTRPM8‐HEK293) with Ca^2+ microfluorimetry. […] Compound‐induced TRPM8‐mediated Ca^2+ influx was confirmed using untransfected HEK293 cells and the channel blocker AMTB. […] The concentration of compounds to reach half of channel activation (EC50) or to block half‐channel activity evoked by WS‐12 (IC50) are reported in Table 1, along with the percentage of maximal activation or blockade (Efficacy).
Assays were conducted to assess the channel activity of the recombinant hTRPM8 stably expressed in HEK‐293 cells. HEK‐293‐hTRPM8 cells were cultured in a monolayer using a DMEM GlutaMax with 10% FBS and 1% P/S and maintained at 37 °C in 5% CO2. For experiments, cells were prepared and seeded at the indicated densities. To evaluate compound effectiveness against hTRPM8 activity, microfluorometry‐based calcium flux assays were performed using Fluo‐4 NW Ca^2+ dye and fluorescence detection. HEK cell lines expressing hTRPM8 were seeded in 96‐well plates and incubated with the dye‐loading solution. Ion channel activity was measured using a plate reader, and fluorescence intensity changes were recorded following the addition of vehicle, compound at varying concentrations, and antagonist (10 μM AMTB). Data analysis included calculating the Z‐factor for each assay and normalizing compound effects to […]. Data were analyzed to determine the concentration exerting half‐maximal inhibition (IC50) or activation (EC50) of agonist‐induced calcium elevation, using GRAPHPAD PRISM8® software (Boston, MA, USA). All experiments were conducted in triplicate, and results are presented as mean ± standard deviation.

T1 sequence (Q7Z2W7 whole entry): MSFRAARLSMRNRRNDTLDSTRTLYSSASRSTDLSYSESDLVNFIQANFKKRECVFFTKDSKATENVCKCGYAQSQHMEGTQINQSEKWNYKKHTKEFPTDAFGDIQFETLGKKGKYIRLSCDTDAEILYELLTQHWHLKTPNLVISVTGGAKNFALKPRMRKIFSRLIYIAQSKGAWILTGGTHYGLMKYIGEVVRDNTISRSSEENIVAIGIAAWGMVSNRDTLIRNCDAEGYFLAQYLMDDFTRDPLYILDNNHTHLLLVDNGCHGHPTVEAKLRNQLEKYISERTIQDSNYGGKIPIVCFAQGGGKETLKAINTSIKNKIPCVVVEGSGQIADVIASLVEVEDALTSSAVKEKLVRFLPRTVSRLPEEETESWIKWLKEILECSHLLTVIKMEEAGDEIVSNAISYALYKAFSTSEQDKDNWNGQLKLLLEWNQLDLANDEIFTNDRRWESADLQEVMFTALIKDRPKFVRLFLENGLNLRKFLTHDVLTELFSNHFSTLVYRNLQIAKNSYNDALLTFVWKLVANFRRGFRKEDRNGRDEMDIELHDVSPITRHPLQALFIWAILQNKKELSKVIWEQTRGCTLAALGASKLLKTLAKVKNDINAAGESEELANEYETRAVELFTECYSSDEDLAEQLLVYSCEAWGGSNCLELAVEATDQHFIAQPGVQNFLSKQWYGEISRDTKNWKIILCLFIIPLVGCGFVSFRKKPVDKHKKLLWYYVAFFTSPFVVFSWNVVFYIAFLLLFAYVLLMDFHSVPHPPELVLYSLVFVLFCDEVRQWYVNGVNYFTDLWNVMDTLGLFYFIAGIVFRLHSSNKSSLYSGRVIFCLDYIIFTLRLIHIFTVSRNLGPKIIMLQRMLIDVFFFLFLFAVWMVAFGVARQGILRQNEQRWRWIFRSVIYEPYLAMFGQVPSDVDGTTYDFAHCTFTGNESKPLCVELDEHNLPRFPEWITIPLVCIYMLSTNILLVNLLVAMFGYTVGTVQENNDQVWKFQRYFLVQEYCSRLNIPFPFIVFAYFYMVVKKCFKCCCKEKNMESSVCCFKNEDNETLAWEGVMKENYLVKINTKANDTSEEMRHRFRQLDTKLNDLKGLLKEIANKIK

In the case of `O=C(COC(=O)c1ccccc1-c1ccccc1)NC12CC3CC(CC(C3)C1)C2` [Compound 23, 2‐((3S,5S,7S)‐adamantan‐1‐ylamino)‐2‐oxoethyl [1,1′‐biphenyl]‐2‐carboxylate], the inhibition at 0.43 µM [1] is reported as at least 75%, the Emax [2] is reported as 100% and the “Activity (agonist/antagonist)” value ([3]; hTRPM8-HEK293, agonism = compound-induced Ca2+ influx, antagonism = modulation of WS-12-induced Ca2+ influx) is reported as “Antagonist”. The IC50 ([3]; hTRPM8-HEK293, block of half channel activity evoked by WS-12, mean ± SD, N = 3, read-out: IC50) was 200 nM and the Hill coefficient ([3]; hTRPM8-HEK293 Ca2+ microfluorimetry dose-response, mean ± SD) was 0.5 ± 0.9.
